Reference: PMC10959927, “Platinum iodido drugs show potential anti-tumor activity, affecting cancer cell metabolism and inducing ROS and senescence in gastrointestinal cancer cells” (Communications Biology, 2024)
“And” between values parts separate entries of the source, which are not always exact repeats. Equal entries are not always repeated.

Assays:
[1] = test system: CC2509 fibroblasts; experiment: Cell viability, crystal violet staining, non-tumoral cells; details: CC2509, 48 h
Method: (§1) Cell viability was assessed using a crystal violet-based staining method. […] The cells (2 × 10^5) were seeded in 24-multiwell dishes in 0.5 mL of complete medium and incubated overnight. […] After 48 h, cells were fixed with 1% glutaraldehyde (20–30 min), washed with distilled water, and stained with 0.1% crystal violet. […] IC50 were calculated by using GraphPad Prism (version 8.0). Nonlinear regression was used to fit the data to the log (inhibitor) versus response (variable slope).

[2] = test system: HPDE cells; experiment: as above; details: for percentage of viable cells: 48 h
Method: as §1

[3] = test system: AGS cells; experiment: SA-β-Gal activity, CellEvent Senescence Green flow cytometry;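 also: IC50 concentration of each compound relative to untreated control set as 1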; assay type: cell-based, human; details: Fig. 3A, replicate values
Method: (§2) SA-β-Gal activity was measured following two different approaches. (i) AGS, MKN45 and PANC1 cells (5 × 10^4) were seeded in 24-multiwell dishes and incubated overnight. […] For flow cytometry cell senescence detection, cells were tripsinized, fixed for 15 min with PFA 4% and stained with the CellEvent Senescense Green Flow Cytometry Assay Kit (C10840, Invitrogen) according to manufacturer’s instructions. CellEvent Senescense Green Probe was used at a 1:500 dilution and fluorescence was detected using the filter (Ex488nm/Em530/30) BL1 with a 4-laser Attune NxT Acoustic Cytometer (Thermo Fisher Scientific). […] After 3 h, the treatments were removed, new supplemented medium was added, and cells were incubated for an additional 24 h. Finally, SA-β-Gal staining was performed using the Senescence Cells Histochemical Staining Kit (CS0030-1KT) according to the manufacturer’s instructions.

[4] = test system: MKN45 cells; experiment: as above; assay type: cell-based, human; details: Fig. 3A, replicate values
Method: as §2

[5] = test system: PANC1 cells; experiment: as above; assay type: cell-based, human; details: Fig. 3A, replicate values
Method: as §2

[6] = test system: AGS cells; experiment: RT-qPCR gene expression (CDKN1A, IL6, MMP1, MAP2K3, SOD1, SOD2, CAT, MKI67, TNFRSF10D); assay type: cell-based, human
Method: (§3) Total cellular RNA was extracted using Tri-Reagent (Life Technologies), following the manufacturer’s instructions. One μg of total RNA was primed with random primers and cDNA synthesized with an M-MLV reverse transcriptase following the manufacturer’s instructions (Promega). Target genes were amplified using a SYBR Green polymerase chain reaction assay, working with the specific primer sets listed in Table 4.
(§4) Thermal cycling of the qPCR reaction was initiated with a denaturation step at 95 °C for 10 min. The process consisted of 40 cycles (denaturation at 95 °C for 15 sec, annealing at 60 °C for 30 sec, and elongation at 75 °C for 30 sec). PCR amplifications were carried out in a StepOne Real‐time PCR System (Applied Biosystems, 4376357). Relative mRNA levels were calculated by the delta-Ct method (2-ΔΔCt), where each 1-Ct difference equals a two-fold change in transcript abundance, using GAPDH as an endogenous gene reference. ΔΔCT represents the difference between the mean ΔCT value of the cells tested and the mean ΔCT value of the calibrator, both calculated for the same PCR run.

[7] = test system: MKN45 cells; experiment: as above; assay type: cell-based, human
Method: as §3, §4

[8] = test system: PANC1 cells; experiment: as above; assay type: cell-based, human
Method: as §3, §4

[9] = test system: AGS cells; experiment: Ratio GSH/GSSG, colorimetric kit; assay type: cell-based, human
Method: (§5) GSH and GSSG levels were determined in AGS and PANC1 cells after 3 and 24 h of treatment with the compounds (using H2O2 as a positive control) with the Glutathione Colorimetric Detection Kit (ThermoFisher) following the manufacturer’s instructions. Thirty minutes after adding the Colorimetric Detection Reagent and the Reaction Mixture, the absorbance was read at 405 nm. A standard curve was generated with each assay to interpolate the sample results. To measure GSSG, standards and samples must be diluted with the Sample Diluent containing 2-vinylpyridine.

[10] = test system: PANC1 cells; experiment: Ratio GSH/GSSG, colorimetric kit; assay type: cell-based, human
Method: as §5

[11] = test system: PANC1 cells; experiment: Clonogenic (CFU) assay after 1, 3, 24 h pre-treatment; assay type: cell-based, human
Method: For the clonogenic assay we used two different approaches. […] Then, cells were cultured in a 6-well plate at a very low concentration (2 × 10^3 cells per well) and incubated for 10 days. […] To evaluate the role of ROS in cell proliferation, we supplemented the growth medium with 0.5 mM NAC. After 10 days, the cells were fixed with 1% glutaraldehyde and stained with 0.1% crystal violet. The number of colonies was quantified directly and reflected as CFUs: Colony Forming Units.

[12] = read-out: IC50 concentration (± SD) at 48 h in non-tumoral cell lines
[13] = MKN45, Fig. 3C, replicate values
[14] = PANC1, Fig. 3C, replicate values
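For Fold change % Senescence in this document: IC50 concentration of each compound relative to untreated control set as 1.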

CC(C)[NH][Pt@SP1]([I])([I])[NH]C(C)C [I6, cis-[PtI2(isopropylamine)2]]
percentage of viable cells ([1]; dose 2.5 µM): 101.369% and 68.5642% and 72.6415% | percentage of viable cells ([1]; dose 5 µM): 100.382% and 62.1377% and 89.6445% | percentage of viable cells ([1]; dose 10 µM): 50.1592% and 62.7776% and 90.9953% | percentage of viable cells ([1]; dose 25 µM): 52.2611% and 59.729% and 78.3886% | percentage of viable cells ([1]; dose 50 µM): 30.3822% and 34.0139% and 46.6351% | IC50 [1, 12]: 35 µM and 33.8 µM | percentage of viable cells ([2]; dose 2.5 µM): 88.7955% and 72.4125% and 95.3401% | percentage of viable cells ([2]; dose 5 µM): 78.4314% and 72.7203% and 72.6353% | percentage of viable cells ([2]; dose 10 µM): 57.5163% and 55.8292% and 52.5038% | percentage of viable cells ([2]; dose 25 µM): 22.9225% and 35.4367% and 19.9292% | percentage of viable cells ([2]; dose 50 µM): 8.5901% and 14.6939% and 8.599% | IC50 [2, 12]: 15 µM and 14.2 µM | Fold change % Senescence [3]: 5.13 fold change and 5.74 fold change and 3.46 fold change | Fold change % Senescence [4]: 5.26 fold change and 5.34 fold change and 6.2 fold change | Fold change % Senescence [5]: 3.99 fold change and 3.23 fold change and 3.43 fold change | CDKN1A, Fold change vs GAPDH ([6]; Fig. 3C, replicate values): 7.239 fold change and 5.782 fold change and 9.064 fold change | IL-6, Fold change vs GAPDH ([6]; Fig. 3C, replicate values): 1.072 fold change and 0.8542 fold change and 0.2227 fold change | MMP-1, Fold change vs GAPDH ([6]; Fig. 3C, replicate values): 528.599 fold change and 466.082 fold change and 599.501 fold change | Fold change MAP2K3 vs GAPDH ([6]; Fig. 4B, replicate values): 14.3277 fold change and 13.4406 fold change and 15.2735 fold change | MKI67 Fold change vs GAPDH ([6]; Fig. S4C): 0.8471 fold change and 0.6697 fold change and 1.072 fold change | TNFRSF10D Fold change vs GAPDH ([6]; Fig. S4C): 16.1948 fold change and 12.3693 fold change and 21.2034 fold change | CAT (Fold change vs GAPDH) ([6]; mRNA vs Control = 1): 0.4383 Fold change and 0.3857 Fold change and 0.4982 Fold change | SOD1 (Fold change vs GAPDH) ([6]; mRNA vs Control = 1): 1.81 Fold change and 1.501 Fold change and 2.182 Fold change | SOD2 (Fold change vs GAPDH) ([6]; mRNA vs Control = 1): 0.6611 Fold change and 0.5938 Fold change and 0.736 Fold change | MKI67 Fold change vs GAPDH ([7]; MKN45, Fig. S4C): 0.2699 fold change and 0.2509 fold change and 0.2902 fold change | TNFRSF10D Fold change vs GAPDH ([7]; MKN45, Fig. S4C): 0.3106 fold change and 0.2548 fold change and 0.3786 fold change | CAT (Fold change vs GAPDH) ([7]; MKN45, mRNA vs Control = 1): 1.125 Fold change and 0.8671 Fold change and 1.459 Fold change | SOD1 (Fold change vs GAPDH) ([7]; MKN45, mRNA vs Control = 1): 1.504 Fold change and 1.381 Fold change and 1.638 Fold change | SOD2 (Fold change vs GAPDH) ([7]; MKN45, mRNA vs Control = 1): 2.631 Fold change and 2.276 Fold change and 3.26 Fold change | CDKN1A, Fold change vs GAPDH [7, 13]: 1.257 fold change and 1.116 fold change and 1.417 fold change | IL-6, Fold change vs GAPDH [7, 13]: 1.298 fold change and 0.9165 fold change and 1.735 fold change | MMP-1, Fold change vs GAPDH [7, 13]: 2.795 fold change and 2.229 fold change and 3.504 fold change | Fold change MAP2K3 vs GAPDH ([7]; MKN45, Fig. 4B, replicate values): 2.445 fold change and 2.003 fold change and 2.985 fold change | MKI67 Fold change vs GAPDH ([8]; PANC1, Fig. S4C): 1.187 fold change and 1.0074 fold change and 1.3984 fold change | TNFRSF10D Fold change vs GAPDH ([8]; PANC1, Fig. S4C): 1.308 fold change and 1.177 fold change and 1.453 fold change | CAT (Fold change vs GAPDH) ([8]; PANC1, mRNA vs Control = 1): 1.283 Fold change and 1.157 Fold change and 1.422 Fold change | SOD1 (Fold change vs GAPDH) ([8]; PANC1, mRNA vs Control = 1): 1.212 Fold change and 1.267 Fold change and 1.413 Fold change | SOD2 (Fold change vs GAPDH) ([8]; PANC1, mRNA vs Control = 1): 0.7792 Fold change and 0.7372 Fold change and 0.8236 Fold change | CDKN1A, Fold change vs GAPDH [8, 14]: 0.7609 fold change and 0.6464 fold change and 0.8957 fold change | IL-6, Fold change vs GAPDH [8, 14]: 2.029 fold change and 0.6879 fold change and 5.985 fold change | MMP-1, Fold change vs GAPDH [8, 14]: 1.768 fold change and 1.572 fold change and 2.113 fold change | Fold change MAP2K3 vs GAPDH ([8]; PANC1, Fig. 4B, replicate values): 1.382 fold change and 1.186 fold change and 1.609 fold change | GSH/GSSG ([9]; AGS, 3, relative to Control = 1): 0.7708 and 0.7765 and 0.8015 | GSH/GSSG ([9]; AGS, 24, relative to Control = 1): 0.964 and 0.9646 and 1.003 | GSH/GSSG ([10]; PANC1, 3, relative to Control = 1): 0.8833 and 0.8858 and 1.064 | GSH/GSSG ([10]; PANC1, 24, relative to Control = 1): 0.52 and 0.6511 and 0.6572 | CFUs ([11]; PANC1, 1 h pre-treatment at IC50, colonies after 10 days): 336 and 264 and 360 | CFUs ([11]; PANC1, 3 h pre-treatment at IC50, colonies after 10 days): 292 and 280 and 324
